The source of these data is patent US9981968B2, “Substituted pyrrolo[2,3-d]pyrimidines for the treatment of cancer and proliferative disorders” (Northwestern University, priority 2013, dated 2018).

What all share (type): cell-based, human
Assay [1] concerns U937 cell lines. The assay can be described thus: Immunoblot of PARP cleavage and cleaved caspase 3. As to conditions: U937 cell lysates, FIG. 17. The protocol: FIG. 17. Immunoblot of cell lysates from U937 cell lines treated with Compounds 381, 383, 409 (as test compounds) and Compound 501 (as a negative control) as compared to 8-amino adenosine (8NH2-Ado) and 8-chloro adenosine (8Cl-Ado) (as positive controls). The impact of the compounds on proteins associated with cell death was assessed via performing an immunoblot. (See FIG. 17). PARP cleavage indicated activation of the caspase cascade and cell death by induction of apoptosis. Similarly detection of cleaved caspase 3 indicated activation of caspase activity and cell death by apoptosis. GAPDH was included as a loading control to indicate approximately equal loading of protein.

For assay [2], the system named is MM.1S cells. The assay can be described thus: MTS CellTiter 96 cell proliferation assay, MM.1S. As to conditions: for IC50: Homo sapiens, MM1.S, read-out: Estimated IC50; for IC50 / Estimated IC50: MTS cell proliferation assay; for decreasing cell proliferation: 0.1-10 μM, MTS assay, FIG. 1, compared with 8-amino adenosine. The protocol:
Cell viability was assessed by MTS assay as follows.
The MTS CellTiter 96 assay is a colorimetric method to assess the number of viable cells based on the conversion of a tetrazolium compound (MTS) to a formazan product by the mitochondrial dehydrogenase enzyme of the cells. This assay is used to determine the number of viable cells remaining following a drug treatment in comparison to the number of viable cells that are only treated with the drug vehicle (control cells). The amount of formazan product in the control cells is normalized to 100% and the amount of formazan in the drug treated cells is expressed as a percentage of control. This is used to generate dose response curve and estimate the drug concentration that produced a 50% decrease in the number of viable cells.

Assay [3] relates to acute leukemia cell lines (THP-1, K562, Kasumi-1, and U937). The assay can be described thus: Inhibition of viability of acute leukemia cell lines. As to conditions: THP-1, K562, Kasumi-1, U937; FIGS. 11-14. The protocol: Compounds 381, 383, 409 (as test compounds) and Compound 501 (as a negative control) were administered to a variety of acute leukemia cell lines (THP-1. K562, Kasumi-1, and U937) in order to test their ability to inhibit cell growth as compared to 8-amino adenosine (8NH2-Ado) and 8-chloro adenosine (8Cl-Ado) (as positive controls) as in the previous Examples.

`Nc1ncnc2c1nc(Cl)n2[C@@H]1O[C@H](CO)[C@@H](O)[C@H]1O` [Compound 8-Cl-Ado, 8-chloro adenosine]: the “induction of apoptosis (PARP cleavage, cleaved caspase 3)” value in assay [1] is on record as “Induction of apoptosis was observed”. On the same count and under the same terms, the value for `Nc1ncnc2c1nc(N)n2[C@@H]1O[C@H](CO)[C@@H](O)[C@H]1O` [Compound 8-NH2-Ado, 8-amino adenosine] was “Induction of apoptosis was observed”.

As to `Cc1c(C)n(Cc2ccccc2)c2ncnc(Cl)c12` [NUCC-0000280], the IC50 in assay [2] is 5 µM. The same measure, in the same setting: the value for `Clc1ncnc2c1c1c(n2Cc2ccccc2)CCCC1` [NUCC-0000308] was 10 µM. For the molecule `FC(F)(F)c1cn(Cc2ccccc2)c2ncnc(Cl)c12` [NUCC-0000315], the IC50 in assay [2] was 3 µM. On the same count and under the same terms, for `Fc1ccc(Cn2cc(C(F)(F)F)c3c(Cl)ncnc32)cc1` [NUCC-0000325] the value was 5 µM; for `FC(F)(F)c1cn(Cc2cccnc2)c2ncnc(Cl)c12` [NUCC-0000326], 3 µM; for `FC(F)(F)c1cn(Cc2ccncc2)c2ncnc(Cl)c12` [NUCC-0000327], 5 µM. Still for that read-out and setting: the value for `FC(F)(F)c1cn(CC2CCOCC2)c2ncnc(Cl)c12` [NUCC-0000329] was 3 µM; that for `CC(C)(C)OC(=O)N1CCC(Cn2cc(C(F)(F)F)c3c(Cl)ncnc32)CC1` [NUCC-0000357] was 1.5 µM.

For `FC(F)(F)c1cn(CCN2CCCC2)c2ncnc(Cl)c12` [NUCC-0000358], the IC50 in assay [2] was 3 µM. On the same count and under the same terms, for `Cc1c(C)n(CC2CCCCC2)c2ncnc(Cl)c12` [NUCC-0000359] the value was 10 µM; for `Cc1c(C)n(Cc2ccc(F)cc2)c2ncnc(Cl)c12` [NUCC-0000360], 7 µM; for `COCCn1c(C)c(C)c2c(Cl)ncnc21` [NUCC-0000361], 10 µM.

In the case of `Cc1c(C)n(Cc2ccccc2)c2ncnc(N)c12` [NUCC-0000362], the IC50 in assay [2] is 10 µM. Same read-out and setting: the value for `Cc1c(C)n(Cc2ccco2)c2ncnc(Cl)c12` [NUCC-0000363] was 10 µM; that for `Cc1c(C)n(Cc2ccc(F)cc2)c2ncnc(N)c12` [NUCC-0000375] was 10 µM.

As to `COc1cccc(Cn2c(C)c(C)c3c(Cl)ncnc32)c1` [NUCC-0000409], the cell viability result in assay [3] is on record as “reduce cell viability significantly”. For the same molecule, the IC50 in assay [2] was 1.5 µM. `Fc1ccc(Cn2c3c(c4c(Cl)ncnc42)CCCC3)cc1` [NUCC-0000412]: in assay [2], the IC50 is 2.5 µM. Same read-out and setting: the value for `Cc1c(C)n(CCN2CCOCC2)c2ncnc(Cl)c12` [NUCC-0000413] was 5 µM; that for `NC(=O)N1CCC(Cn2cc(C(F)(F)F)c3c(Cl)ncnc32)CC1` [NUCC-0000469] was 10 µM.

For the molecule `FC(F)(F)c1cn(CC2CCNCC2)c2ncncc12` [NUCC-0000470], the IC50 in assay [2] was 10 µM. Still for that read-out and setting: for `Cc1ncnc2c1cc(C)n2C1O[C@H](CO)[C@@H](O)[C@H]1O` (stereo partly shown) [NUCC-0000477] the value was 8 µM.

On to `Cc1ncnc2c1c(C(F)(F)F)cn2CC1CCN(C(=O)OC(C)(C)C)CC1` [NUCC-0000482], for which, in assay [2], the decreasing cell proliferation result was “not effective in decreasing cell proliferation” and the “Estimated IC50” value was “In- active”. The corresponding values for `Cc1ncnc2c1c(C(F)(F)F)cn2CC1CCNCC1` [NUCC-0000501] are “not effective in decreasing cell proliferation” and “In- active”. With `Nc1nc(Cl)c2c(C(F)(F)F)cn(CC3CCNCC3)c2n1` [NUCC-0000570], the IC50 in assay [2] is 3 µM. As to `CC(C)(C)OC(=O)N1CCC(Cn2ccc3c(Cl)nc(Cl)nc32)CC1` [NUCC-0000571], the IC50 in assay [2] was 5 µM.

With `Clc1nc(Cl)c2ccn(CC3CCNCC3)c2n1` [NUCC-0000575], the IC50 in assay [2] was 3 µM. The same measure, in the same setting: for `CS(=O)(=O)N1CCC(Cn2cc(C(F)(F)F)c3c(Cl)nc(N)nc32)CC1` [NUCC-0000576] the value was 3 µM. `CS(=O)(=O)N1CCC(Cn2ccc3c(Cl)nc(Cl)nc32)CC1` [NUCC-0000577]: the IC50 in assay [2] was 5 µM. Still for that read-out and setting: the value for `CS(=O)(=O)N1CCC(Cn2ccc3c(Cl)ncnc32)CC1` [NUCC-0000578] was 5 µM; that for `O=C(N1CCC(Cn2cc(C(F)(F)F)c3c(Cl)ncnc32)CC1)C(F)(F)F` [NUCC-0000593] was 5 µM. Take `CC(=O)N1CCC(Cn2ccc3c(Cl)nc(Cl)nc32)CC1` [NUCC-0000595]: the IC50 in assay [2] was 3 µM. Turning to `CS(=O)(=O)N1CCC(Cn2cc(C(F)(F)F)c3c(Br)ncnc32)CC1` [NUCC-0000598], the IC50 in assay [2] is 2 µM. Still for that read-out and setting: for `OCCOCn1cc(C(F)(F)F)c2c(Cl)ncnc21` [NUCC-0050715] the value was 5 µM; for `Cc1cn(CC2CCN(C(=O)OC(C)(C)C)CC2)c2ncnc(Cl)c12` [NUCC-0054036], 2 µM. The same measure, in the same setting: for `COc1cccc(Cn2cc(C(F)(F)F)c3c(Cl)ncnc32)c1` [NUCC-0054037] the value was 2 µM; for `COc1ccc(Cn2cc(C(F)(F)F)c3c(Cl)ncnc32)cc1` [NUCC-0054038], 2 µM; for `Cc1cn(CC2CCNCC2)c2ncnc(Cl)c12` [NUCC-0054039], 1 µM. On the same count and under the same terms, for `Cc1cn(CC2CCN(S(C)(=O)=O)CC2)c2ncnc(Cl)c12` [NUCC-0054040] the value was 3 µM; for `FC(F)(F)c1c[nH]c2ncnc(Cl)c12` [NUCC-0054043], 7 µM. Consider `FC(F)(F)c1cc2c(Cl)ncnc2n1CC1CCNCC1` [NUCC-0054150], for which the IC50 in assay [2] was more than 10 µM.

For `CS(=O)(=O)N1CCC(Cn2c(C(F)(F)F)cc3c(Cl)ncnc32)CC1` [NUCC-0054151], the half-inhibitory concentration (IC50) in assay [2] is more than 10 µM.

As a reminder, the IC50 is the concentration that gives 50% inhibition.
